Source: a compilation of properties of binary mixtures (doi:10.1016/j.jct.2017.12.009)

Test: xn = mol fraction of the nth substance listed
Details: 101 kPa

CO + CCCC[N+]1(C)CCCC1.O=S(=O)([O-])C(F)(F)F
x2 = 0
Details	speed of sound [m/s]
278.15 K	1169
288.15 K	1135

CCCC[N+]1(C)CCCC1.O=S(=O)([O-])C(F)(F)F + CO
speed of sound [m/s]
Details	278.15 K	288.15 K	298.15 K	308.15 K	318.15 K
x1 = 0.0501	1228	1198	1168	1138	1110
x1 = 0.1004	1274	–	–	1190	1163
x1 = 0.1503	1311	–	1257	1231	1205
x1 = 0.2002	–	1316	–	1264	1239
x1 = 0.3002	1389	1363	1338	1313	1289
x1 = 0.3996	1421	1396	1371	–	1324
x1 = 0.4998	1445	1420	1396	1372	1349
x1 = 0.6006	1463	1439	1415	–	1368
x1 = 0.7015	1478	1453	1429	1406	1383
x1 = 0.8013	1490	1465	–	1418	–
x1 = 0.8427	1495	1470	1446	1423	1400
x1 = 0.9008	1501	1476	1452	1429	1406
x1 = 0.9514	–	1480	1456	1433	1411
x1 = 1	1513	–	1461	1438	1415
